From patent publication USRE49850E1, “N-(pyridin-2-yl)-4-(thiazol-5-yl)pyrimidin-2-amine derivatives as therapeutic compounds” (AUCENTRA THERAPEUTICS PTY LTD, priority 2015, dated 2024)

Columns and labels:
CDK7H = CDK7H (Homo sapiens, UniProt P50613); assay: Kinase assay CDK7H (radiometric profiling service); type: biochemical; settings: for Ki: apparent Ki calculated from Km (ATP) and IC50, read-out: CDK inhibition Ki CDK7H
Procedure: Eurofins Pharma Discovery or Reaction Biology Corporation Kinase Profiler services were used to measure inhibition of CDKs and other kinases by radiometric assay. Inhibition of CDK4/D1, CDK6/D3 and CDK9/T1 were also determined in-house using ADP Glo Kinase assays (Promega Corporation, Madison, USA). Briefly, the kinase reaction for CDK4/D1 and CDK6/D3 was performed with kinase reaction buffer ([…] Tris base pH 7.5, 20 mM MgCl2, 0.4 mM DTT), 0.1 mg/ml BSA and RB-CTF substrate (retinoblastoma protein1 C-terminal fraction). For CDK9/CyclinT1, the kinase reaction was performed with standard assay buffer and Kinase Dilution Buffer and RBER-IRStide substrate. Serial dilutions of 1:3 were prepared for test compounds for 10 concentrations (from 10 μM to 0.5 nM). The kinase reactions were started by addition of ATP, incubated for 40 min at 37° C. and then stopped by adding 10 μL of ADP Glo reagent. After incubation at room temperature in the dark for 40 min, 20 μL of kinase detection reagent was added per well and incubated for 40 min. Luminescence was measured using an EnVision Multilabel plate reader (PerkinElmer, Buckinghamshire, UK). Positive and negative controls were perfonned in the presence and absence of CDK kinases, respectively. Half-maximal inhibition (IC50) values were calculated using a 4-parameter logistic non-linear regression model with Graphpad prism (Version 6.0). Apparent inhibition constants (Ki) values were calculated from Km (ATP) and IC50 values for the respective kinases.

CDK 2A = CDK 2A (Homo sapiens, UniProt P24941); assay: Kinase assay CDK2A (radiometric profiling service); type: biochemical; settings: apparent Ki calculated from Km (ATP) and IC50; read-out: CDK inhibition Ki CDK 2A
Method in brief: (§1)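 Luminescent ADP-Glo read-out for CDK4/D1 (radiometric alternative); CDK7/2/1 radiometric via profiler. CDK4/D1: RB-CTF, Tris pH 7.5, MgCl2, DTT, BSA, ATP start, 40 min 37° C. 10-pt 1:3 series, 10 μM–0.5 nM. 4-PL IC50; Ki calc. from Km(ATP).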

MDA-MB-453 = assay: Cell viability assay (MTT, solid tumour cell line) MDA-MB-453; type: cell-based, human; settings: Homo sapiens, MDA-MB-453, 72 h; read-out: Anti-proliferative activity GI50 MDA-MB-453
Text: (§2) Compounds from Example 1 were subjected to a standard MTT (3-(4,5-dimethylthiazol-2-yl)-2,5-diphenyltetrazolium bromide) and resazurin assays on solid tumour cell lines and leukemia cell lines, respectively, as previously reported (Wang S et al., J Med Chem 47:1662-1675, 2004 and Diab S. et al. CheMedChem 9:962-972, 2014).

CDK6D3 = target: T1, CDK6D3 (Homo sapiens, UniProt Q00534); assay: Kinase assay CDK6/D3 (radiometric or ADP Glo); type: biochemical; settings: apparent Ki calculated from Km (ATP) and IC50; read-out: CDK inhibition Ki CDK6D3
T1 construct: purchased Eurofins Pharma Discovery or Reaction Biology Corporation (service)
T1 sequence (Q00534 whole entry): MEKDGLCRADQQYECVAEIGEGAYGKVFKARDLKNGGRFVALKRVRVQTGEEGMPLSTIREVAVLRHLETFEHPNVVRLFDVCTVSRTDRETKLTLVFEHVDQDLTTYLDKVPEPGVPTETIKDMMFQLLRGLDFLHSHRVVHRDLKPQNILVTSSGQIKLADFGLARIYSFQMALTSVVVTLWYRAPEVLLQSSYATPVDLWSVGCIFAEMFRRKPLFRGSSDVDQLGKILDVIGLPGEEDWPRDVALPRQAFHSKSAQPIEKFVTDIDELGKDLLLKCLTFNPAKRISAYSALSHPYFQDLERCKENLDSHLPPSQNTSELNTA
T1 sequence (P30281 whole entry partner): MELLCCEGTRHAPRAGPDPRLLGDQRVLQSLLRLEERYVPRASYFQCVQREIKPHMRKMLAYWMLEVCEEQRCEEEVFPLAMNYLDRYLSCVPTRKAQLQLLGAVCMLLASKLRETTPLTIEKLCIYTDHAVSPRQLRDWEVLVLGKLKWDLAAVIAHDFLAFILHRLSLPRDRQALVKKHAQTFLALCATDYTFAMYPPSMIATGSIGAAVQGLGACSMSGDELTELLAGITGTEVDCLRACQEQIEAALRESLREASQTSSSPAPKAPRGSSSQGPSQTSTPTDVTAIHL
Method in brief: (§3)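 Radiometric inhibition data for CDKs came from Eurofins or Reaction Biology profiling services; CDK4/D1 was also run in-house by ADP-Glo in […] pH 7.5, 20 mM MgCl2, 0.4 mM DTT, 0.1 mg/ml BSA with RB-CTF substrate, 40 min at 37 °C after ATP start. Ten-point 1:3 dilutions (10 μM–0.5 nM); four-parameter IC50, Ki from IC50 and ATP Km.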

CDK1B = CDK1B (Homo sapiens, UniProt P06493); assay: Kinase assay CDK1B (radiometric profiling service); type: biochemical; settings: apparent Ki calculated from Km (ATP) and IC50; read-out: CDK inhibition Ki CDK1B
CDK1B, sequence (P06493 whole entry): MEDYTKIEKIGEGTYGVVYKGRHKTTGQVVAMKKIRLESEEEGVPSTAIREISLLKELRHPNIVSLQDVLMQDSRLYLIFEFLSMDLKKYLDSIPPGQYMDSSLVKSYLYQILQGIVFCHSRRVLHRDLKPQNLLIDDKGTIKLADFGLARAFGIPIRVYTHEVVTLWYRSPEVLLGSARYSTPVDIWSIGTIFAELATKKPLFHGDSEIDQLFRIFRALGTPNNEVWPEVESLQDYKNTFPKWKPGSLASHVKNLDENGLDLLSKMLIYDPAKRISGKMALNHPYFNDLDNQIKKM
CDK1B, sequence (P14635 whole entry partner): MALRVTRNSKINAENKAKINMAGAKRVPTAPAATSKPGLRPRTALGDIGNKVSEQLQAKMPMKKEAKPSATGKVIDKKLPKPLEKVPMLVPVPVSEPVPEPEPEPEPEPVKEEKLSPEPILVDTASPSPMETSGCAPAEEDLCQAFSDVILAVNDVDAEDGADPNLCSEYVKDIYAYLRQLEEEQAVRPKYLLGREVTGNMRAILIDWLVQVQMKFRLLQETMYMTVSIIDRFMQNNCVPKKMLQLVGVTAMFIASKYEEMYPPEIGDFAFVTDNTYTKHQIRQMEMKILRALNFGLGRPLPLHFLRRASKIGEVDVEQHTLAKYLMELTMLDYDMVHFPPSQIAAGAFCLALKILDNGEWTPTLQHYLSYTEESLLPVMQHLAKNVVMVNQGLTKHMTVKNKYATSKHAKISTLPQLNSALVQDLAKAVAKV
Method in brief: as §1

MV4-11 = assay: Cell viability assay (resazurin, leukemia cell line) MV4-11; type: cell-based, human; settings: Homo sapiens, MV4-11, 72 h; read-out: Anti-proliferative activity GI50 MV4-11
Text: as §2

CDK9T1 = target: T2, CDK9T1 (Homo sapiens, UniProt P50750); assay: Kinase assay CDK9/T1 (radiometric or ADP Glo); type: biochemical; settings: for Ki: apparent Ki calculated from Km (ATP) and IC50, read-out: CDK inhibition Ki CDK9T1
T2 construct: purchased Eurofins Pharma Discovery or Reaction Biology Corporation (service)
T2 sequence (P50750 whole entry): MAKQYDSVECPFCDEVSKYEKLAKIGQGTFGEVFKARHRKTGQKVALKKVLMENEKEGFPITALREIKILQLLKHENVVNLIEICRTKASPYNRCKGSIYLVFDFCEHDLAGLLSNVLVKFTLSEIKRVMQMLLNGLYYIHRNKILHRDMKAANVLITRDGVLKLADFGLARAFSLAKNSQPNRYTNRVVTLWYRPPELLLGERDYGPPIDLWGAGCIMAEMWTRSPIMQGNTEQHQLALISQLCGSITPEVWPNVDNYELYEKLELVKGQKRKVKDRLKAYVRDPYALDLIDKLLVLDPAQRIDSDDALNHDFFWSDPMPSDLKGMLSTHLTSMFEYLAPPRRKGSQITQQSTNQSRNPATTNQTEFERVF
T2 sequence (O60563 whole entry partner): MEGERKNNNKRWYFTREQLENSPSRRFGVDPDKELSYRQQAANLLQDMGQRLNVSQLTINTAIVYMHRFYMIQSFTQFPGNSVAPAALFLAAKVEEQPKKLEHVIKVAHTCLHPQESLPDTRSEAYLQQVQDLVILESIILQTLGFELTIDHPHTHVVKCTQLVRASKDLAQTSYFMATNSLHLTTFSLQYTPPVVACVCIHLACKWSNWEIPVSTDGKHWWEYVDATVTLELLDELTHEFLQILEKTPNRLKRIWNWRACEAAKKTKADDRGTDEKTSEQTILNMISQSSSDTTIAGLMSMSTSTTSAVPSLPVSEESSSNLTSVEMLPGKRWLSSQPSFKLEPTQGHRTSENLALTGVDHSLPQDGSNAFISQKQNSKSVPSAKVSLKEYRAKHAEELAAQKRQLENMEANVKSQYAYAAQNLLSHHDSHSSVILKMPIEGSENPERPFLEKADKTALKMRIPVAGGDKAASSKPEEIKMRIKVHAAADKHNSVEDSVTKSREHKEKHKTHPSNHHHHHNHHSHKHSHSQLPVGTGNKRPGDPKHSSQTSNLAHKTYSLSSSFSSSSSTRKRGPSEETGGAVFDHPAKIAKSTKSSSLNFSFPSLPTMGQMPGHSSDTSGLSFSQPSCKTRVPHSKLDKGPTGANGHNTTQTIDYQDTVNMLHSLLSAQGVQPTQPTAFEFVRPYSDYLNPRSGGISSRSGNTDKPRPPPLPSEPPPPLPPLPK
Method in brief: as §3

CDK4D1 = target: T3, CDK4D1 (Homo sapiens, UniProt P11802); assay: Kinase assay CDK4/D1 (radiometric or ADP Glo); type: biochemical; settings: apparent Ki calculated from Km (ATP) and IC50; read-out: CDK inhibition Ki CDK4D1
T3 construct: purchased Eurofins Pharma Discovery or Reaction Biology Corporation (service)
T3 sequence (P11802 whole entry): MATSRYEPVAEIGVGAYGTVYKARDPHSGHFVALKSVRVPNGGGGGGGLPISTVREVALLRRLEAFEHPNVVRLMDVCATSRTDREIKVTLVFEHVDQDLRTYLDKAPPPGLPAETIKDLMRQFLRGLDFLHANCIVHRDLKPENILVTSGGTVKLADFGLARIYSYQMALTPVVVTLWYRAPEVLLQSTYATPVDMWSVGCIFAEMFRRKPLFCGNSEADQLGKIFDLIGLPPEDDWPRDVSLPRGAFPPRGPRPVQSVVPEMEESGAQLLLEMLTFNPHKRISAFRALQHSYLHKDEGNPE
T3 sequence (P24385 whole entry partner): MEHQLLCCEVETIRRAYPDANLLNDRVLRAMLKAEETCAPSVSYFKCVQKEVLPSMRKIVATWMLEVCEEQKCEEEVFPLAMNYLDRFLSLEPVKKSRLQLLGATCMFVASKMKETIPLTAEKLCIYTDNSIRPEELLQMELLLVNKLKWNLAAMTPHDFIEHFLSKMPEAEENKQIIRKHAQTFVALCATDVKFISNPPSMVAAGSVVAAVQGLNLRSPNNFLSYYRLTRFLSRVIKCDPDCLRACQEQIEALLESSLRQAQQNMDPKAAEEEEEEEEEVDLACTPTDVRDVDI
Method in brief: as §1

CDK7H, sequence (P50613 whole entry): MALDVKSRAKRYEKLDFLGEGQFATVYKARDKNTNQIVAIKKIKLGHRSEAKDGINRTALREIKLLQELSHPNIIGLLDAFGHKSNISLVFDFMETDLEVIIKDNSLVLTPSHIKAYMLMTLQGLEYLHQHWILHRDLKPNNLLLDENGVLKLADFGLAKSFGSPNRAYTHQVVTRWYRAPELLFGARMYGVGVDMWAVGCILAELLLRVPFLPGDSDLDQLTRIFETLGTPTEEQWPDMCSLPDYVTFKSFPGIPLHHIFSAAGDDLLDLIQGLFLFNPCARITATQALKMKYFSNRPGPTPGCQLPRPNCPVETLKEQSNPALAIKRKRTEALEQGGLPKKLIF
CDK7H, sequence (P51946 whole entry partner): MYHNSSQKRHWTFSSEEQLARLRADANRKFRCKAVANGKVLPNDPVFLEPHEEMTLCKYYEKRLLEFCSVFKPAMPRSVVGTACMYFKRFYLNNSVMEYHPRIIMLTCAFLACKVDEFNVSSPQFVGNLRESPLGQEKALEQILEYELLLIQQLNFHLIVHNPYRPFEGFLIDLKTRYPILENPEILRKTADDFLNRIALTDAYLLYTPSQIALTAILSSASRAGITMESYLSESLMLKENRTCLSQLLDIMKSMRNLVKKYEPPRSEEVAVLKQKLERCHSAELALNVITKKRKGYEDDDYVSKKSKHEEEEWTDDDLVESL
CDK7H, sequence (P51948 whole entry partner): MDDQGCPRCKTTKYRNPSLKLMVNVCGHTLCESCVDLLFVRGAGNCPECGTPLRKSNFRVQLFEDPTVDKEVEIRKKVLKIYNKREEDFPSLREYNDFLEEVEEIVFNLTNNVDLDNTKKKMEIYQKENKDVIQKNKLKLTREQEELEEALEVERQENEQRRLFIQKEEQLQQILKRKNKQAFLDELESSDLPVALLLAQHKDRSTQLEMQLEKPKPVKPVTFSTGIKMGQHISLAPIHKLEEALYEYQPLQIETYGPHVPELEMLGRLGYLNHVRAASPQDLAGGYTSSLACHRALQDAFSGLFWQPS

| Structure (SMILES) | Ki (CDK7H) [µM] | Ki (CDK 2A) [nM] | GI50 (MDA-MB-453) [µM] | Ki (CDK6D3) [nM] | Ki (CDK1B) [µM] | GI50 (MV4-11) [nM] | Ki (CDK9T1) [µM] | Ki (CDK4D1) [nM] | remaining activity at 10 µM (CDK7H; compound at 10 μM, read-out: % remaining enzymatic activity at 10 μM CDK7H) [%] | remaining activity at 10 µM (CDK9T1; compound at 10 μM, read-out: % remaining enzymatic activity at 10 μM CDK9T1) [%] |
| --- | --- | --- | --- | --- | --- | --- | --- | --- | --- | --- |
| CCN1CCN(Cc2ccc(Nc3nccc(-c4sc(C(C)C)nc4C)n3)nc2)CC1 [Compound 18, N-(5-((4-ethylpiperazin-1-yl)methyl)pyridin-2-yl)-4-(2-isopropyl-4-methylthiazol-5-yl)pyrimidin-2-amine] | > 5 | 775 | 0.166 ± 0.117 | 394 | > 5 | 418 ± 23 | > 10 | 28 | – | – |
| COc1nc(C)c(-c2ccnc(Nc3ccc(N4CCN(C)CC4)cn3)n2)s1 [Compound 19, 4-(2-methoxy-4-methylthiazol-5-yl)-N-(5-(4-methylpiperazin-1-yl)pyridin-2-yl)pyrimidin-2-amine] | > 5 | 3650 | > 10 | 935 | > 5 | 3520 ± 1040 | 4.76 | 310 | – | – |
| CSc1nc(C)c(-c2ccnc(Nc3ccc(N4CCNCC4)cn3)n2)s1 [Compound 20, 4-(4-Methyl-2-(methylthio)thiazol-5-yl)-N-(5-(piperazin-1-yl)pyridin-2-yl)pyrimidin-2-amine] | > 5 | 720 | 3.14 ± 0.173 | 20 | > 5 | 671 ± 91 | 4.53 | 5 | – | – |
| CSc1nc(C)c(-c2ccnc(Nc3ccc(N4CCN(C)CC4)cn3)n2)s1 [Compound 21, 4-(4-methyl-2-(methylthio)thiazol-5-yl)-N-(5-(4-methylpiperazin-1-yl)pyridin-2-yl)pyrimidin-2-amine] | > 5 | 2700 | 7.16 ± 0.886 | 42 | > 5 | 456 ± 66 | > 5 | 7 | – | – |
| CSc1nc(C)c(-c2ccnc(Nc3ccc(N4CCN(C(C)=O)CC4)cn3)n2)s1 [Compound 22, 1-(4-(6-((4-(4-methyl-2-(methylthio)thiazol-5-yl)pyrimidin-2-yl)amino)pyridin-3-yl)piperazin-1-yl)ethan-1-one] | – | 4760 | > 10 | 1950 | > 5 | 2510 ± 432 | – | 190 | 86 | 80 |
| Cc1nc(SC(C)C)sc1-c1ccnc(Nc2ccc(N3CCNCC3)cn2)n1 [Compound 23, 4-(2-(isopropylthio)-4-methylthiazol-5-yl)-N-(5-(piperazin-1-yl)pyridin-2-yl)pyrimidin-2-amine] | > 5 | 180 | 0.461 ± 0.059 | 200 | > 5 | 73 ± 25 | > 5 | 30 | – | – |
| Cc1nc(SC(C)C)sc1-c1ccnc(Nc2ccc(N3CCN(C)CC3)cn2)n1 [Compound 24, 4-(2-(isopropylthio)-4-methylthiazol-5-yl)-N-(5-(4-methylpiperazin-1-yl)pyridin-2-yl)pyrimidin-2-amine] | > 5 | 180 | 4.88 ± 0.214 | 15 | 3.99 | 66 ± 19 | 4.61 | 1 | – | – |
| CC(=O)N1CCN(c2ccc(Nc3nccc(-c4sc(SC(C)C)nc4C)n3)nc2)CC1 [Compound 25, 1-(4-(6-((4-(2-(isopropylthio)-4-methylthiazol-5-yl)pyrimidin-2-yl)amino)pyridin-3-yl)piperazin-1-yl)ethan-1-one] | > 5 | 75 | 0.514 ± 0.05 | 20 | > 5 | 537 ± 117 | > 5 | 5 | – | – |
| CNc1nc(C)c(-c2nc(Nc3ccc(N4CCNCC4)cn3)ncc2F)s1 [Compound 28, 5-(5-fluoro-2-((5-(piperazin-1-yl)pyridin-2-yl)amino)pyrimidin-4-yl)-N,4-dimethylthiazol-2-amine] | > 5 | 236 | 0.248 ± 0.044 | 32 | 1.36 | 12 ± 3 | 0.784 | 4 | – | – |
| CNc1nc(C)c(-c2ccnc(Nc3ccc(N4CCN(C(C)=O)CC4)cn3)n2)s1 [Compound 33, 1-(4-(6-((4-(4-methyl-2-(methylamino)thiazol-5-yl)pyrimidin-2-yl)amino)pyridin-3-yl)piperazin-1-yl)ethan-1-one] | > 5 | 310 | 5.84 ± 0.279 | 3030 | 3.1 | 154 ± 74 | > 5 | 578 | – | – |
| CNc1nc(C)c(-c2nc(Nc3ccc(N4CCN(C(C)=O)CC4)cn3)ncc2F)s1 [Compound 35, 1-(4-(6-((5-fluoro-4-(4-methyl-2-(methylamino)thiazol-5-yl)pyrimidin-2-yl)amino)pyridin-3-yl)piperazin-1-yl)ethan-1-one] | > 5 | 178 | 4.91 ± 0.432 | 46 | 1.82 | 35 ± 4 | 4.07 | 17 | – | – |
| CNc1nc(C)c(-c2nc(Nc3ccc(N4CCOCC4)cn3)ncc2F)s1 [Compound 38, 5-(5-fluoro-2-((5-morpholinopyridin-2-yl)amino)pyrimidin-4-yl)-N,4-dimethylthiazol-2-amine] | > 5 | 100 | 5.41 ± 0.801 | 30 | 3.31 | 69 ± 5 | > 5 | 5 | – | – |
| Cc1nc(N(C)C)sc1-c1ccnc(Nc2ccc(N3CCNCC3)cn2)n1 [Compound 43, N,N,4-trimethyl-5-(2-((5-(piperazin-1-yl)pyridin-2-yl)amino)pyrimidin-4-yl)thiazol-2-amine] | > 5 | 903 | 0.894 ± 0.091 | 56 | > 5 | 11 ± 21 | > 5 | 21 | – | – |
| Cc1nc(N(C)C)sc1-c1nc(Nc2ccc(N3CCNCC3)cn2)ncc1F [Compound 44, 5-(5-fluoro-2-((5-(piperazin-1-yl)pyridin-2-yl)amino)pyrimidin-4-yl)-N,N,4-trimethylthiazol-2-amine] | > 5 | 335 | 0.237 ± 0.044 | 40 | > 5 | 48 ± 4 | > 5 | 4 | – | – |
| Cc1nc(N(C)C)sc1-c1ccnc(Nc2ccc(N3CCN(C)CC3)cn2)n1 [Compound 45, N,N,4-trimethyl-5-(2-((5-(4-methylpiperazin-1-yl)pyridin-2-yl)amino)pyrimidin-4-yl)thiazol-2-amine] | > 5 | 1430 | 2.1 ± 0.787 | 154 | > 5 | 92 ± 4 | > 5 | 30 | – | – |
| CC(=O)N1CCN(c2ccc(Nc3nccc(-c4sc(N(C)C)nc4C)n3)nc2)CC1 [Compound 48, 1-(4-(6-((4-(2-(dimethylamino)-4-methylthiazol-5-yl)pyrimidin-2-yl)amino)pyridin-3-yl)piperazin-1-yl)ethan-1-one] | > 5 | 976 | 4.72 ± 0.715 | 234 | > 5 | 537 ± 133 | > 5 | 87 | – | – |
